Test results taken from ChEMBL document CHEMBL3751785, “Development and structural analysis of adenosine site binding tankyrase inhibitors” (Bioorg Med Chem Lett, 2016).

Key:
[1] = target: Poly [ADP-ribose] polymerase 1 (Homo sapiens, UniProt P09874); assay: Inhibition of human ARTD1 by fluorescence analysis
[2] = target: Poly [ADP-ribose] polymerase 2 (Homo sapiens, UniProt Q9UGN5); assay: Inhibition of human ARTD2 by fluorescence analysis
[3] = target: Protein mono-ADP-ribosyltransferase PARP4 (Homo sapiens, UniProt Q9UKK3); assay: Inhibition of human ARTD4 by fluorescence analysis
[4] = target: T1, Protein mono-ADP-ribosyltransferase PARP15 (Homo sapiens, UniProt Q460N3); assay: Inhibition of human ARTD7 by fluorescence analysis
T1 sequence (Q460N3 whole entry): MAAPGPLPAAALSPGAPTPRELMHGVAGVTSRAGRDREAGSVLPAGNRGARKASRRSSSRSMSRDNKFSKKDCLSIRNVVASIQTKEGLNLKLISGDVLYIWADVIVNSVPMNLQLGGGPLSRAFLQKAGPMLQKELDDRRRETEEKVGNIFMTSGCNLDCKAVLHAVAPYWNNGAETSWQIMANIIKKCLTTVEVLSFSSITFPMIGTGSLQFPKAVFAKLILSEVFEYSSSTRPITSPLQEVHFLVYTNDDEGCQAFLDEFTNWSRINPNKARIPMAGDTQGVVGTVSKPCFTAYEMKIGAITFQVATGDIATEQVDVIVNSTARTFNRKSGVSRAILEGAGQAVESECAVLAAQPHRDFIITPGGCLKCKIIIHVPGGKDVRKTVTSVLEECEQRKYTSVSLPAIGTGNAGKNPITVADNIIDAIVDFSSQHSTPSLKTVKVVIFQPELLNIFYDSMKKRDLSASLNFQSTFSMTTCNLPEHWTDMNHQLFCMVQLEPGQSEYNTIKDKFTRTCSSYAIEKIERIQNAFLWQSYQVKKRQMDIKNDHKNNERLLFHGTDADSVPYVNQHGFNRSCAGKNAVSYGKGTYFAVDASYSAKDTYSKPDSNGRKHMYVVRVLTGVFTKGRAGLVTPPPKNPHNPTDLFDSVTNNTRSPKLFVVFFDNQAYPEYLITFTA

[5] = target: Protein mono-ADP-ribosyltransferase PARP14 (Homo sapiens, UniProt Q460N5); assay: Inhibition of human ARTD8 by fluorescence analysis
[6] = target: T2, Protein mono-ADP-ribosyltransferase PARP10 (Homo sapiens, UniProt Q53GL7); assay: Inhibition of human ARTD10 by fluorescence analysis
T2 sequence (Q53GL7 whole entry): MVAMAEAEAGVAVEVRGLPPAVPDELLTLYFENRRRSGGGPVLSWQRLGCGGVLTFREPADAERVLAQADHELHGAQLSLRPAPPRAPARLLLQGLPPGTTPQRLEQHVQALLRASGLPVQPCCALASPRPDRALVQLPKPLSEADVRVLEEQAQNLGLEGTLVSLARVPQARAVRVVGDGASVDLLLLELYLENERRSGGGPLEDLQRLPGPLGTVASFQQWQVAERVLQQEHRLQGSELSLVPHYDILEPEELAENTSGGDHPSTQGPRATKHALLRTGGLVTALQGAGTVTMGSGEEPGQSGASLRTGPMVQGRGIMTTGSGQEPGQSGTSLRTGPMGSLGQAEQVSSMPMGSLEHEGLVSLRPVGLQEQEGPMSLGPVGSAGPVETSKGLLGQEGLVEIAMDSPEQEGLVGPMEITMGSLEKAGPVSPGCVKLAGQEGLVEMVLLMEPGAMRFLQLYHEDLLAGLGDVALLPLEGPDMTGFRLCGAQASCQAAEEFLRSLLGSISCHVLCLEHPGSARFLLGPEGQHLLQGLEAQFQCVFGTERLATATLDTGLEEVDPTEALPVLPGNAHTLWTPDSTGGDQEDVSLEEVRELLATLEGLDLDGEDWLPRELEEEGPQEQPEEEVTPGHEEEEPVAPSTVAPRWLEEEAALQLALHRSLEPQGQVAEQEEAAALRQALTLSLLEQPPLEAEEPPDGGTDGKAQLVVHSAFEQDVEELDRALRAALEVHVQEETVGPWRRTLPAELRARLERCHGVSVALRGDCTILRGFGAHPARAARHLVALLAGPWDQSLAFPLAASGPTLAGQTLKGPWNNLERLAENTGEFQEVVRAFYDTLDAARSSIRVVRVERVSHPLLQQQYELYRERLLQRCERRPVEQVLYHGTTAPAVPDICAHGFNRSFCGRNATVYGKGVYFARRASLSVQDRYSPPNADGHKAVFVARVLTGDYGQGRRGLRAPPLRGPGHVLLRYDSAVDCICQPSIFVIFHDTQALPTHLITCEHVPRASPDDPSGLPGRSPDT

[7] = target: T3, Protein mono-ADP-ribosyltransferase PARP12 (Homo sapiens, UniProt Q9H0J9); assay: Inhibition of human ARTD12 by fluorescence analysis
T3 sequence (Q9H0J9 whole entry): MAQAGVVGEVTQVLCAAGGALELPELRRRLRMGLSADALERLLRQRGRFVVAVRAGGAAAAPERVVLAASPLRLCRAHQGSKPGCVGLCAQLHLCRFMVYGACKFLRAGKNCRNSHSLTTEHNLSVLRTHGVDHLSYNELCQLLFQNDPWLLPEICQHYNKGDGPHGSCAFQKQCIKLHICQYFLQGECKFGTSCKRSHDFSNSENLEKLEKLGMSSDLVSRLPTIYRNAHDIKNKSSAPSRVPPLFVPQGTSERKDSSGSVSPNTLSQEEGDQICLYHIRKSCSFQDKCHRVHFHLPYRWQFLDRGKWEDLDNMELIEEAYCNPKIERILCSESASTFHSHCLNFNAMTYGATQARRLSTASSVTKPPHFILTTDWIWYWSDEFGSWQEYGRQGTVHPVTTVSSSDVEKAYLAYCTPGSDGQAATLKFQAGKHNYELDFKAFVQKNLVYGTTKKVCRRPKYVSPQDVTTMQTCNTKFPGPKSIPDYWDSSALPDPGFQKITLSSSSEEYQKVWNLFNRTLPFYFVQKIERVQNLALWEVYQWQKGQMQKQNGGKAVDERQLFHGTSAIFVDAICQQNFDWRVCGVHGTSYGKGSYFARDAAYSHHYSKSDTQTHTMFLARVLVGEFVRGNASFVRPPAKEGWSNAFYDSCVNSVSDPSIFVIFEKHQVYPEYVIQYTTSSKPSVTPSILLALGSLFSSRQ

Chain of Poly [ADP-ribose] polymerase 2 (Q9UGN5 whole entry): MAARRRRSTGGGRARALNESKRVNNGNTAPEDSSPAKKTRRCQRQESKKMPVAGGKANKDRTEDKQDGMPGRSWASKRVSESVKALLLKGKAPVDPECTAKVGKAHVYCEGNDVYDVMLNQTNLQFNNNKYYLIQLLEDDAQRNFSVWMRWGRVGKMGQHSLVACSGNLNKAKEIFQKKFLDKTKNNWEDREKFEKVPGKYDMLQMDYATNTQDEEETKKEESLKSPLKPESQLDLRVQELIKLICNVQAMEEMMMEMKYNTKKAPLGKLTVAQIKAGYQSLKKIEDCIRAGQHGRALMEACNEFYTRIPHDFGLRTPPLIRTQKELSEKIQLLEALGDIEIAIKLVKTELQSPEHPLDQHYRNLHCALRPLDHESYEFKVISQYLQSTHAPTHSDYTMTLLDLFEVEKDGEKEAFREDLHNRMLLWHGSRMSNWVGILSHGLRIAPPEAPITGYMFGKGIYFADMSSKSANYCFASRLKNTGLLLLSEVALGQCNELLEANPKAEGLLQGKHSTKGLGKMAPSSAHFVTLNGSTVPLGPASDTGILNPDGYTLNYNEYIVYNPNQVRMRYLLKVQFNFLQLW
Chain of Poly [ADP-ribose] polymerase 1 (P09874 whole entry): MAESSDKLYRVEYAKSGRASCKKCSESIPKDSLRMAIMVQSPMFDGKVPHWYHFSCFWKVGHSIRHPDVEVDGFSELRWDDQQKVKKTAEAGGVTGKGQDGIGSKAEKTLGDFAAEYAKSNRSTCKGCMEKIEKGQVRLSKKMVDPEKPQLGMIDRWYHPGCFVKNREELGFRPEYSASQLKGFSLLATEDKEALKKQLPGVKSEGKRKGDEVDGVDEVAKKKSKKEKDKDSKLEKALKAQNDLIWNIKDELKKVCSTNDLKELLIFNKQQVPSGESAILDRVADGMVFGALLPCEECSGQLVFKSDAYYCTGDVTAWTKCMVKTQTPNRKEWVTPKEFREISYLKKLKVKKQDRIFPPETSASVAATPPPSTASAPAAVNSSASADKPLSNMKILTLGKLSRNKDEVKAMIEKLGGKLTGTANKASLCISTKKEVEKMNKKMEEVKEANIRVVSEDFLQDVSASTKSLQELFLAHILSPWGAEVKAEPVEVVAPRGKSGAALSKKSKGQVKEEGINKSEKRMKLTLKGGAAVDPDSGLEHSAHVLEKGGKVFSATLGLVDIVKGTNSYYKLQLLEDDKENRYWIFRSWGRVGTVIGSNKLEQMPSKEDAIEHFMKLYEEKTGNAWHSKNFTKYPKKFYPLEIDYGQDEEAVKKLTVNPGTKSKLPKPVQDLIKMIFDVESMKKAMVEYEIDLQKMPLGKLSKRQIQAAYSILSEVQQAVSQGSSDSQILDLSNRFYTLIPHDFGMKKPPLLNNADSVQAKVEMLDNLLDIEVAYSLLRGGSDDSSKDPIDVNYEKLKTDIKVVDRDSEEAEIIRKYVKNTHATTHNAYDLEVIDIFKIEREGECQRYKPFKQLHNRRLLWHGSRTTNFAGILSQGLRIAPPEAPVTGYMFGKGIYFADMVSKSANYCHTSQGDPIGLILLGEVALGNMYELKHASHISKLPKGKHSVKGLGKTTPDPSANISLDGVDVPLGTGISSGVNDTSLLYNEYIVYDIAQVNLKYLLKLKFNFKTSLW
Chain of Protein mono-ADP-ribosyltransferase PARP4 (Q9UKK3 whole entry): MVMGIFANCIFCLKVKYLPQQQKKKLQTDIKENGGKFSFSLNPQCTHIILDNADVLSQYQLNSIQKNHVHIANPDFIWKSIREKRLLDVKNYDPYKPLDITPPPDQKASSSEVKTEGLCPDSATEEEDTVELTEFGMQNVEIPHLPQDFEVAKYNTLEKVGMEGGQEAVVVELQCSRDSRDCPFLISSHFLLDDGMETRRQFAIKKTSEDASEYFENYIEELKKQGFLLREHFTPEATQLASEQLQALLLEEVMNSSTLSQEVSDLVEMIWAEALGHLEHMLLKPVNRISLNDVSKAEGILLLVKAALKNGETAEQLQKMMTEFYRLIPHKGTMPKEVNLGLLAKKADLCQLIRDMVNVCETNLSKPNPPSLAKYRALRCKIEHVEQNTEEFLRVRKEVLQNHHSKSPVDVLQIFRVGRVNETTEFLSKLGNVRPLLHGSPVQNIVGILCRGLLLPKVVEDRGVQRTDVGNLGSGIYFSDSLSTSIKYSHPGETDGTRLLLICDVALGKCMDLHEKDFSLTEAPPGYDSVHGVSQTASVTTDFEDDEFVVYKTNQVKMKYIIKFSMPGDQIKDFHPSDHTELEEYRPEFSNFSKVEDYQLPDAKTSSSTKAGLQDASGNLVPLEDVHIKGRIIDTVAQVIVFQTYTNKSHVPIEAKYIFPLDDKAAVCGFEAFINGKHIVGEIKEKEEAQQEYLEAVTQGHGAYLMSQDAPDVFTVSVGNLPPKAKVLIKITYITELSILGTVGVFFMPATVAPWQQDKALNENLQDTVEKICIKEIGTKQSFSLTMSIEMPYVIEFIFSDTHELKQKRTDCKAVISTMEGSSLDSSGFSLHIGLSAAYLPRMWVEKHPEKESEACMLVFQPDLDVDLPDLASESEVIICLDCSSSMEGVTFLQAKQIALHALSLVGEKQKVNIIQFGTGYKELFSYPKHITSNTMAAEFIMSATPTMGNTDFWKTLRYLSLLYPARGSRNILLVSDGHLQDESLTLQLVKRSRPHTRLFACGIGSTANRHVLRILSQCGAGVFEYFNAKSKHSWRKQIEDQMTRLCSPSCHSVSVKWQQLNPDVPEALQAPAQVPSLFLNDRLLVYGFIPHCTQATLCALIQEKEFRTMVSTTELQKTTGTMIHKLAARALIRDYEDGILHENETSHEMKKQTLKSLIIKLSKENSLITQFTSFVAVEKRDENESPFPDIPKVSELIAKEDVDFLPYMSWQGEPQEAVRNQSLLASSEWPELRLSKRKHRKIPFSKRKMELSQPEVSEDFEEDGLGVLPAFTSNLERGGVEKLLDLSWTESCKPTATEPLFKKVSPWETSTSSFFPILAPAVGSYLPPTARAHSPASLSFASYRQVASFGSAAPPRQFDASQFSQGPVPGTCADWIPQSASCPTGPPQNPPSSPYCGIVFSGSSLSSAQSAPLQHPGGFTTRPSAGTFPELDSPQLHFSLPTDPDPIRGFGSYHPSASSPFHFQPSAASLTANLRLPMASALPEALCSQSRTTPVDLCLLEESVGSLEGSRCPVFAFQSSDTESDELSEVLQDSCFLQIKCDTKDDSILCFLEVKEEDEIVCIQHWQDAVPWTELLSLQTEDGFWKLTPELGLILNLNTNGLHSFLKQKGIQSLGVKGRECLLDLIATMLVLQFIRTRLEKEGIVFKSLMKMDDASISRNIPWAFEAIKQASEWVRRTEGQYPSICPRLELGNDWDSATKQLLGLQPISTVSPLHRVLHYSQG
Chain of Protein mono-ADP-ribosyltransferase PARP14 (Q460N5 whole entry): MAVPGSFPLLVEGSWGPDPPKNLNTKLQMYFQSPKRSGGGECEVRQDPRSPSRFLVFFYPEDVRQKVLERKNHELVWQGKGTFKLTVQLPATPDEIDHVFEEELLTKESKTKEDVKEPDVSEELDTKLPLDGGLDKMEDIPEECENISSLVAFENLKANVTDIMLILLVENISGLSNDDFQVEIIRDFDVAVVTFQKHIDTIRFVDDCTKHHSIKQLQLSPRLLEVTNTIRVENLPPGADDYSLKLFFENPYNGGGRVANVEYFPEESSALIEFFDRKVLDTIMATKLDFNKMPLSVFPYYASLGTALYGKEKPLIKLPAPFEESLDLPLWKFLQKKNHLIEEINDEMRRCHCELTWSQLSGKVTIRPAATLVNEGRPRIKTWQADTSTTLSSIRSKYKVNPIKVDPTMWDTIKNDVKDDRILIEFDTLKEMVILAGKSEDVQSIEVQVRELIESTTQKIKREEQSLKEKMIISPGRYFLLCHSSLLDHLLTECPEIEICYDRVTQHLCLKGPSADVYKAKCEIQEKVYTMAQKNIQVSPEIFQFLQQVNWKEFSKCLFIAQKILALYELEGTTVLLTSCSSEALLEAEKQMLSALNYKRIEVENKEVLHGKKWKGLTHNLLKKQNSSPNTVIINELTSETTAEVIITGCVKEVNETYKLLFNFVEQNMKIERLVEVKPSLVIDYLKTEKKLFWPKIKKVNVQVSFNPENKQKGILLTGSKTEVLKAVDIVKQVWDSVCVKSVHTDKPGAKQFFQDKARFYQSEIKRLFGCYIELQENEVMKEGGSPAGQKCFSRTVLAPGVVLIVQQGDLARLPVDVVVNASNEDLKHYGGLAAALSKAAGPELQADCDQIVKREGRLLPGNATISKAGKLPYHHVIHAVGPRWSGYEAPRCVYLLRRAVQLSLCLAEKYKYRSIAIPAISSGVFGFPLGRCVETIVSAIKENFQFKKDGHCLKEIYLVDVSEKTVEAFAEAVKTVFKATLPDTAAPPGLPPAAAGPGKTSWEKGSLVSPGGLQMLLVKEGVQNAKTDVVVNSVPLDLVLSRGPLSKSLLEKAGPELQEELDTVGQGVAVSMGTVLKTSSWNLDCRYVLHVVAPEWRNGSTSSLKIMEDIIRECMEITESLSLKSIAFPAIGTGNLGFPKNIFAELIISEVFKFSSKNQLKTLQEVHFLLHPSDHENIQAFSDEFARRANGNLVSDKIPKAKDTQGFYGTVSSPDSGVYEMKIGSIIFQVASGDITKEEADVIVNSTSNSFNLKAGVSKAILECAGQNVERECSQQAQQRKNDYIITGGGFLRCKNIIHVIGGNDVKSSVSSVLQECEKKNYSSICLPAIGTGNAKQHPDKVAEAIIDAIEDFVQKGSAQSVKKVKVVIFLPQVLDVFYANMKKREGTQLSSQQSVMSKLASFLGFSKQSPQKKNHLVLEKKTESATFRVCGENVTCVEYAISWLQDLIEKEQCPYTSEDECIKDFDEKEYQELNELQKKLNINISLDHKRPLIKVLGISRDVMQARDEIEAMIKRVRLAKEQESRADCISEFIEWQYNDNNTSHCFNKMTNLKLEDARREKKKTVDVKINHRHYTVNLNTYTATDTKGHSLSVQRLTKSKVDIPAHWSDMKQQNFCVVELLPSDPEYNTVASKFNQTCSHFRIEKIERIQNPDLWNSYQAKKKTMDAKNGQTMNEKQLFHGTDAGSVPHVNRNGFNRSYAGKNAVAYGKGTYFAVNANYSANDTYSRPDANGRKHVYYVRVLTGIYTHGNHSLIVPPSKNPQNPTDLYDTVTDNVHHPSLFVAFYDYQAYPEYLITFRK

IC50 [1]: > 100 µM
IC50 [2]: > 100 µM
IC50 [3]: > 100 µM
IC50 [4]: > 10 µM
IC50 [5]: > 10 µM
IC50 [6]: > 10 µM
IC50 [7]: > 10 µM
SMILES: COc1ccc(C2(CNC(=O)c3ccc(NC(=O)c4ccco4)cc3Cl)CCOCC2)cc1
